Source: ChEMBL document CHEMBL4819146, “Optimization of physicochemical properties of pyridone-based EP3 receptor antagonists” (Bioorg Med Chem Lett, 2021)

Legend:
[1] = AUC in Sprague-Dawley rat at 20 mg/kg, po; type: ADME, organism-based; parameters: dose 20 mg/kg; details: in vivo
[2] = Oral bioavailability in Sprague-Dawley rat at 20 mg/kg; type: ADME, organism-based; details: in vivo
[3] = Cmax in Sprague-Dawley rat at 20 mg/kg, po; type: ADME, organism-based; parameters: route oral, dose 20 mg/kg; details: in vivo
[4] = Volume of distribution at steady state in Sprague-Dawley rat at 2 mg/kg, iv; type: ADME, organism-based; details: in vivo, read-out: Vdss
[5] = Apparent permeability from apical to basolateral side in dog MDCK cells; type: ADME, cell-based, Canis lupus familiaris

An AUC [1] of 59653 ng·h/mL, an F [2] of 81.6% and a Cmax [3] of 5120 ng/mL were found for CCn1ncc2c(F)cc(-c3ccc(C(CC)(CC)c4nnc[nH]4)c(=O)[nH]3)cc21 in this work. The Vd [4] was 0.5 L/kg.

An AUC [1] of 15775 ng·h/mL, an F [2] of 47.8% and a Cmax [3] of 6960 ng/mL were found for CC(C)C(c1noc(=O)[nH]1)c1ccc(-c2ccc3cccc(F)c3c2)[nH]c1=O (configuration not stated) in this work. It also gave a Vd [4] of 0.21 L/kg and a Papp A→B [5] of 25.3 ×10⁻⁶ cm/s.

An AUC [1] of 4242 ng·h/mL, a Cmax [3] of 409 ng/mL and a Vd [4] of 1.98 L/kg were found for CC(C)C(c1nnc[nH]1)c1ccc(-c2ccc3cccc(F)c3c2)[nH]c1=O (configuration not stated) in this work.
